Measured values reported in patent US20250313528A1, “NOVEL COMPOUND AND PHARMACEUTICAL COMPOSITION FOR PREVENTING OR TREATING PULMONARY FIBROSIS COMPRISING SAME AS ACTIVE INGREDIENT” (GIL MEDICAL CENTER, priority 2022, published 2025).

How the values were obtained:
fibronectin and α-SMA = test: Western blotting of fibrosis-related proteins in TGF-β1-induced MRC-5 cells; type: cell-based, human; conditions: for expression of fibronectin and α-SMA by concentration: MRC-5 + TGF-β1, Compound 1 at 5, 10, 20 μM, Compound 2 at 2.5, 5, 10 μM, FIG. 3; for expression levels of fibronectin and α-SMA protein: MRC-5, TGF-β1 1 ng/ml, 10 μM, FIG. 4b; for expression levels of fibronectin and α-SMA: MRC-5 induced by TGF-β1, screen of sulforaphane compounds, FIG. 2
Procedure: Since the overexpression of extracellular matrix components such as fibronectin and α-SMA serves as an indicator of fibrotic changes in tissues, MRC-5 cells induced to undergo fibrosis by TGF-β1 were treated with each compound at different concentrations to compare the expression levels of fibronectin and α-SMA.
Specifically, to extract fibronectin and α-SMA proteins, the cells were washed once with cold PBS and then RIPA buffer (150 mM NaCl, 0.5% Triton X-100, 50 mM Tris-HCl, pH 7.4, 25 mM NaF, 20 mM EGTA), which was added with a protease inhibitor cocktail, was added thereto to lyse the cells. Then, the proteins were quantified using a BCA protein assay kit. All protein samples were subjected to electrophoresis at 10 μg on 8% to 10% PAGE gels and then transferred to 0.2 μm PVDF membranes (EMD Millipore, MA, USA). The membranes to which the protein was transferred were blocked with 5% BSA or 5% skim milk for 1 hour, and then primary antibodies were added thereto and incubated overnight at 4° C. The following day, the membranes were washed three times with PBST, and then HRP-conjugated secondary antibodies were added and reacted at room temperature for 1 hour. The PVDF membranes prepared through such procedures were smeared with ECL (Luminata™ Crescendo, EMD Millipore) and exposed to a fluorescence reader to confirm the level of protein expression.
The specific experimental methods are the same as in Example 2, and sulforaphane was treated at a concentration of 20 μM, Compound 1 at 5 μM, 10 μM, and 20 μM, and Compound 2 at 2.5 μM, 5 μM, and 10 μM, respectively.
To compare the changes in fibrosis-related protein expression by treating normal MRC-5 and diseased DHLF-IPF cell lines induced with pulmonary fibrosis by TGF-β1 with SFN and the two candidate compounds, Western blotting was performed.
The specific experimental methods are the same as in Example 2. TGF-β1 was treated at 1 ng/ml to induce fibrosis, and sulforaphane and the two compounds each were treated at a concentration of 10 μM.

FN, COL1A1, and α-SMA = test: qRT-PCR of fibrosis-related genes in TGF-β1-induced DHLF-IPF cells; type: cell-based, human; conditions: 10 μM pretreatment 1 hour, TGF-β1 1 ng/ml 48 hours, FIG. 4c/4d
Procedure: MRC-5 and DHLF-IPF cells were each cultured in growth medium, and the medium was removed. […] The medium was then removed, and the cells were washed once with PBS. Intracellular total RNA was extracted from the cultured cells using TRIzol reagent (TaKaRa Bio Inc., Japan) for gene expression analysis. 1 mL of TRIzol reagent was added to lyse the cells and denature the tissue. The lysate was transferred to each 1.5 mL tube, and 200 μL of chloroform was added thereto, followed by vortexing for 20 seconds to ensure complete mixing. After incubating at room temperature for 15 minutes, the mixture was centrifuged at 14,000 rpm for 20 minutes to obtain the supernatant. After adding an equal volume of isopropyl alcohol, the tubes were inverted and incubated at room temperature for 10 minutes. The sample was centrifuged at 14,000 rpm for 15 minutes to obtain an RNA pellet, which was washed by centrifugation with 70% ethanol for use on RNA at 14,000 rpm for 5 minutes, and dried for 5 minutes. The dried RNA sample was added with 20 μL of distilled water treated with 0.1% diethyl pyrocarbonate (DEPC) to dissolve the pallet and the resultant was used as a sample for cDNA synthesis. 1 μL of the same was used to measure the RNA concentration and purity at O.D. 260/280 nm using a Nanodrop.
Single-stranded cDNA synthesis was performed by mixing 1 μg of the extracted total RNA with 1 μL of oligo-d(T) primer ([…]) and 10 mM dNTP (TaKaRa Bio Inc., Japan), reacting at 65° C. for 5 minutes, followed by rapid cooling. To this template, 4 μL of 5×RT buffer, 0.5 μL of RNA inhibitor, and 100 units of RTase (TaKaRa Bio Inc., Japan) were added, and the total volume was adjusted to 20 μL using DEPC-treated distilled water. […]
Each gene expression level was measured using real-time PCR. […] The specificity of the amplified product was confirmed through melting curve analysis, and the target genes were quantified and compared using GAPDH as a control gene.

[1] = test system: bleomycin (BLM)-induced pulmonary fibrosis animal models; test: Body weight and lung weight in bleomycin-induced pulmonary fibrosis animal model; type: in vivo, C57BL/6N mice; conditions: BLM mice; for body weight gain during the experimental period: three times a week for three weeks; for lung weight: end of the experiment, vs normal group and BLM group
Procedure: The inhibitory effects of the finally selected Compound 1 and Compound 2 on pulmonary fibrosis were examined in bleomycin (BLM)-induced pulmonary fibrosis animal models.
(§1) Specifically, 7-week-old C57BL/6N mice were exposed to BLM (3-5 units/kg) via the airway. The compounds were administered orally at doses of 200 μg/kg and 500 μg/kg for Compound 1, and 100 μg/kg and 200 μg/kg for Compound 2, three times a week for three weeks starting the day after BLM exposure. Body weight gain was periodically measured during the experimental period, and lung weight was measured at the end of the experiment.

[2] = test system: fibronectin, collagen 1, α-SMA; test: Immunohistochemistry of fibrosis-related proteins in lung tissue, BLM model; type: in vivo, C57BL/6N mice; conditions: BLM mice; for expression of α-SMA, collagen, and fibronectin in lung tissue (IHC): compared to the BLM group
Procedure: as §1
Specifically, the excised lung tissue was embedded in paraffin and sectioned into 4 μm slices using a microtome. These tissue sections were used for H&E, MT stain, and Immunohistochemistry (IHC). Each experiment was conducted by deparaffinizing and rehydrating the sections using xylene and ethanol. For IHC, the LSAB2 system HRP (DAKO, Carpinteria, CA, USA) kit was used. Antibody retrieval was performed in 0.1 mM citric acid (pH 6), and the experiment was conducted according to the provided instructions. The sections were blocked with blocking buffer at room temperature for 1 hour, then incubated overnight at 4° C. with primary antibodies (fibronectin, collagen 1, α-SMA). After blocking with secondary antibodies at room temperature for 1 hour, the Streptavidin-HRP system was used for 10 minutes, followed by exposure to DAB solution, hematoxylin staining, dehydration, clearing, and mounting with Canada balsam. The stained slides were examined under an optical microscope (BK51, Olympus, Japan). The staining results were quantified using the Image J program.
To examine the key factors involved in fibrosis, immunohistochemistry (IHC) was performed using the same method as in Example 6-3.

Row | Structure (SMILES) | expression of fibronectin and α-SMA by concentration (fibronectin and α-SMA) | expression levels of fibronectin and α-SMA protein (fibronectin and α-SMA) | expression levels of fibronectin and α-SMA (fibronectin and α-SMA) | gene expression levels of FN, COL1A1, and α-SMA (FN, COL1A1, and α-SMA) | body weight gain during the experimental period ([1]; 200 μg/kg orally) | body weight gain during the experimental period ([1]; 500 μg/kg orally) | concentration with the best inhibitory effect on weight recovery and related protein expression ([2]; 200 vs 500 μg/kg) [µg/kg] | expression of α-SMA, collagen, and fibronectin in lung tissue (IHC) [2] | lung weight ([1]; 100 μg/kg orally) | body weight gain during the experimental period ([1]; 100 μg/kg orally) | lung weight ([1]; 200 μg/kg orally)
1 | CCOC(=O)C(CSC(=S)NCCCC[S+](C)[O-])NC(C)=O (centres unmarked) [Compound 1] | decreased in a concentration-dependent manner | significantly reducing the expression levels compared to sulforaphane | significantly decreased | significantly reducing the expression levels compared to sulforaphane | steady increase | initially decreased and then gradually increased | 200 | significant reduction |  |  | 
2 | C=CCOC(=O)C(CSC(=S)NCCCC[S+](C)[O-])NC(C)=O (centres unmarked) [Compound 2] | decreased in a concentration-dependent manner | significantly reducing the expression levels compared to sulforaphane | significantly decreased | significantly reducing the expression levels compared to sulforaphane | steady increase in body weight, approaching levels similar to the normal group |  |  | significant reduction in the BLM+GSF-018 group in a dose-dependent manner | similarly lower levels | steady increase in body weight, approaching levels similar to the normal group | similarly lower levels
